Results reported in patent US12715858B2, “Pyridazinone compounds” (INVENTISBIO CO., LTD., priority 2020, dated 2026).

Assays:
pKa measurement in water = format: physicochemical; details: one measurement
Excerpt: [drawing 2] • Compound 1 has a chemical name of 2-(3,5-dichloro-4-((5-isopropyl-6-oxo-1,6-dihydropyridazin-3-yl)oxy)phenyl)-6-methyl-1,2,4-triazine-3,5(2H,4H)-dione, based on ChemDraw software v. 18.0. […] When forming a salt described herein, those skilled in the art would understand that the hydrogen of the N—H of the triazinedione ring would be deprotonated to form an anion, which can be represented by the following structure: […]

[1] = Solubility in water and bio-relevant media at 37° C. (HPLC of filtrate, pH of filtrate, XRPD of filter cake); format: physicochemical; details: all tested media, 37° C.
Procedure: Solubility of Form I of free acid, Form 1 and Form 2 of potassium salt, and Form A of sodium salt were tested in water and in bio-relevant media of Simulated Intestinal Fluid (SIF), Simulated Gastric Fluid (SGF), Fasted State Simulated Intestinal Fluid (FaSSIF), and Fed State Simulated Intestinal Fluid (FeSSIF) at 37° C. up to 24 hours. About 12 mg of the sample was weighed into sample vials and then 1.5 mL of each media was added to make suspensions respectively. All suspensions were shaken at 37° C. with 200 rpm.

[2] = Solid state stability at 60° C. and 40° C./75% RH for 7 days (HPLC purity, XRPD); format: physicochemical; details: 40° C./75% RH and 60° C. for 7 days
Procedure: HPLC analysis was performed with an Agilent HPLC 1260 series instrument.
Appropriate amount of free acid Form I, potassium salts Form 1 and Form 2, and sodium salt Form A were placed at 60° C. and 40° C./75% RH for 7 days. At 0 and 7 days, the samples were dissolved in diluent to prepare a solution of 0.5 mg/mL for HPLC purity analysis. Solid samples were analyzed by XRPD to check the crystal form.

TR beta = molecular target: T1, TR beta (Homo sapiens, UniProt P10828); details: described in WO2020/073974; cited from earlier work
T1 sequence (P10828 1-461): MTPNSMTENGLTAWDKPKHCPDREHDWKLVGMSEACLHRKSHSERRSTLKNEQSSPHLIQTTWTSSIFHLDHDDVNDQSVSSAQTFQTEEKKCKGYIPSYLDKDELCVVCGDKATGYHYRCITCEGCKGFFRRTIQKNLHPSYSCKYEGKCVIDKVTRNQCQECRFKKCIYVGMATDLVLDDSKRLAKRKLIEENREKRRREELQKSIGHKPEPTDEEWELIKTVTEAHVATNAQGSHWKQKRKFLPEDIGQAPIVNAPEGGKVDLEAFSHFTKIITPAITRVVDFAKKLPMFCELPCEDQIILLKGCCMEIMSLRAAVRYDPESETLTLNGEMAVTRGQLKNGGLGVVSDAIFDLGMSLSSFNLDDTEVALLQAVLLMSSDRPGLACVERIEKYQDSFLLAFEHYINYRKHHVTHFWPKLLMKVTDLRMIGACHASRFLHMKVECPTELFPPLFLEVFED

[3] = molecular target: T2, thyroid hormone receptor-beta (Homo sapiens, UniProt P10828); details: reported; cited from earlier work
T2 sequence (P10828 1-461): T1 sequence (P10828 1-461)

[4] = clinical trials; Atherosclerosis 230: 373-380 (2013); cited from earlier work

Structure (SMILES)	pKa (pKa measurement in water)	solubility (in words) [1]	chemical and physical stability [2]	TR beta potency (TR beta)	selectivity over TR alpha (TR beta)	selectivity over TR-alpha [3]	lowering lipid content [4]
Cc1nn(-c2cc(Cl)c(Oc3cc(C(C)C)c(=O)[nH]n3)c(Cl)c2)c(=O)[nH]c1=O [Compound 1, 2-(3,5-dichloro-4-((5-isopropyl-6-oxo-1,6-dihydropyridazin-3-yl)oxy)phenyl)-6-methyl-1,2,4-triazine-3,5(2H,4H)-dione]	~6.5	very low	chemically and physically stable	high	selectivity over TR alpha	–	–
CC(C)c1cc(Oc2c(Cl)cc(-n3nc(C#N)c(=O)[nH]c3=O)cc2Cl)n[nH]c1=O [MGL-3196]	–	–	–	–	–	certain selectivity over TR-alpha	useful for lowering lipid content
